Reference: US8198294B2, “Treatment of dyskinesia” (Motac Neuroscience Limited, priority 2001, dated 2012)

Test system: MPTP-lesioned marmoset
Test: L-DOPA-induced dyskinesia in MPTP-treated marmoset model of Parkinson's disease
Assay type: in vivo, common marmosets (Callithrix jacchus)
Details: for Median total dyskinesia scores compared to animals treated with L-DOPA and vehicle / Animals in which dyskinesia was completely abolished: antagonist 10 mg/kg i.p. with L-DOPA 8 mg/kg p.o.; for Median total dyskinesia scores compared to animals treated with L-DOPA and vehicle: cumulative scores; for Animals in which dyskinesia was completely abolished: n=6
Description: The effect of the selective mu opioid receptor antagonist Cyprodime on dyskinesia was assessed in a 1-methyl-4-phenyl-1,2,3,6-tetrahydropyridine (MPTP)-treated marmoset model of Parkinson's disease.
Six adult common marmosets (Callithrix jacchus) were obtained from a closed colony bred at Manchester University, BSU. This study was conducted in the U.K. in accordance with the requirements of The Animals (Scientific Procedures) Act, 1986. The animals were kept in controlled housing conditions, with constant temperature (25° C.), relative humidity (50%) and 12 h light/dark cycles (08.00-20.00 light on). The animals had free access to food (Masuri primate diet-E, Scientific Dietary Services, UK), fresh fruit supplements and water. Marmosets were rendered parkinsonian by treatment with 1-methyl-4-phenyl-1,2,3,6-tetrahydropyridine (MPTP) hydrochloride (Sigma, 2 mg/kg s.c. for 5 consecutive days). […] The animals were allowed to recover for a period of 14 weeks until behavioural assessment was commenced.
Dyskinesia was established in these animals by twice daily treatment with L-DOPA (10 mg/kg p.o. as Madopar Dispersible®) for 3 weeks.
Opioid antagonists, or vehicle, were administered with L-DOPA to assess the effects of adjunctive treatment on L-DOPA-induced dyskinesia and the anti-parkinsonian efficacy of L-DOPA. All animals received all treatments. Treatments in any one animal were separated by at least three days. Naltrexone (non-selective antagonist) was administered at a dose of 10 mg/kg (i.p), cyprodime (mu selective antagonist) was administered at a dose of 10 mg/kg (i.p.), naltrindole (delta selective antagonist) was administered at a dose of 10 mg/kg (i.p.), nor-binaltorphimine (nor-BNI, kappa selective antagonist) was administered at a dose of 20 mg/kg (i.p.). Drugs or vehicle were administered with L-DOPA treatment (8 mg/kg p.o.). Behaviour was assessed for 3 hours post drug administration.
A battery of behavioural assessments was performed to assess the intensity, range and speed of movements. In addition, postural abnormalities and dyskinesia were assessed. • 1) Parkinsonian disability—non-parametric measures based on the following scales • i) Motor activity (repertoire) score: 0=no movement at all, 1=movement of head or trunk, 2=movement of limbs but no locomotion, on the floor of the cage, 3=on wall of cage/perch, movement of head or trunk, 4=on wall of cage/movement of limbs but no locomotion, 5=walking around/eating on floor of cage, 6=hopping on floor of cage, 7=climbing onto wall of cage or perch, 8=climbing up and down the walls of the cage or along perch, 9=running, jumping, climbing between cage walls/perch/roof, uses limbs through a wide range of motion and activity. • ii) Bradykinesia score: 0=normal speed of movement, 1=moderate slowing of movement, difficulty initiating and maintaining movement 2=akinetic, unable to move (maximum score in 30 minutes=12). • iii) Posture score: 0=normal, upright, holds head up, 1=impaired, crouched, face down. (maximum score in 30 minutes=6). • 2) Dyskinesia • 0=Absent • 1=Mild, fleeting • 2=Moderate, not interfering with normal activity • 3=Marked, at times interfering with normal activity • 4=Severe, continuous, replacing normal activity
Parameters 1 and 2 were assessed every 30 minutes throughout a six hour period by post-hoc analysis of videotape recordings. Assessment was made by an observer blinded to the treatment administered.
Non-parametric measures of mobility, bradykinesia, posture and dyskinesia were cumulated and compared between treatments with a Friedman's test with post hoc Dunn's test where appropriate.

[1] = L-DOPA 8 mg/kg p.o., MPTP-treated marmosets

Row | SMILES | Median total dyskinesia scores compared to animals treated with L-DOPA and vehicle (n=6, FIG. 1) | Animals in which dyskinesia was completely abolished | also measured
1 | N[C@@H](Cc1ccc(O)c(O)c1)C(=O)O [L-DOPA] |  |  | Parkinsonian symptoms after L-DOPA treatment [1]: reversed; Time to commencement of dyskinesia after L-DOPA administration [1]: ≤ 5 min
2 | COc1cccc2c1[C@]13CCN(CC4CC4)[C@H](C2)[C@]1(OC)CCC(=O)C3 [cyprodime] | markedly reduced | 100% | Dyskinesia exhibited by each treated animal (10 mg/kg i.p. with L-DOPA 8 mg/kg p.o., individual animals): minimal or no dyskinesia
3 | O=C1CC[C@@]2(O)[C@H]3Cc4ccc(O)c5c4[C@@]2(CCN3CC2CC2)[C@H]1O5 [naltrexone] | reduced | 33% | 
4 | Oc1ccc2c3c1O[C@H]1c4[nH]c5ccccc5c4C[C@@]4(O)[C@@H](C2)N(CC2CC2)CC[C@]314 [naltrindole] | reduced | 50% | 
5 | Oc1ccc2c3c1O[C@H]1c4[nH]c5c(c4C[C@@]4(O)[C@@H](C2)N(CC2CC2)CC[C@]314)C[C@@]1(O)[C@H]2Cc3ccc(O)c4c3[C@@]1(CCN2CC1CC1)[C@H]5O4 [nor-BNI, nor-binaltorphimine] |  |  | Median total dyskinesia scores (effect on L-DOPA-induced dyskinesia) (antagonist 20 mg/kg i.p. with L-DOPA 8 mg/kg p.o., n=6, FIG. 1): no effect
